Experimental data taken from patent publication US7893199B2, “Peptides having neutrophil-stimulating activity” (National University Corporation Gunma University, priority 2006, dated 2011).
Like-named read-outs stand apart in the source and are kept apart here. Where a SMILES comes first, the peptide text is derived from it. Where no end group is shown, it is not given here.

Tested on: HL-60 cells differentiated into the neutrophil-like cells
Test: β-hexosaminidase-secreting activity of neutrophil-like differentiated HL-60 cells
Format: cell-based, human
Conditions: for Activity (β-hexosaminidase-secreting activity class): lowest concentration class at which secretion was confirmed
Text: (1) Culture of Cell and Differentiation Into Neutrophil-like Cell
In this time, the cells were subcultured at a cell density of 1.0×10^5 cells/ml to 1.5×10^6 cells/ml, the number of cells was counted using a microscope, and the state of the cells was also confirmed.
The HL-60 cells were differentiated into neutrophil-like cells by setting the cell density in the flask to about 1.0×10^6 cells/ml, adding dibutylyl-cAMP (db-cAMP) as a differentiation-inducing agent so as to have a final concentration of 500 μM, and incubating the cells in the presence of CO2 at 37° C. for 3 days.
(2) Stimulation of Cell and Measurement of β-Hexosaminidase-secreting Activity
The cells were collected by centrifuging the suspension of the differentiated HL-60 cells (1,000 rpm, 5 minutes, 4° C.). After that, the following operation was repeated three times to wash the cells: Hepes buffered Hank's solution (HBHS) containing ice-cooled 0.1% BSA (1.2 mM CaCl2.2H2O, 5.4 mM KCl, 0.44 mM KH2PO4, 0.49 mM MgCl2.6H2O, 0.41 mM MgSO4.7H2O, 136.9 mM NaCl, 0.34 mM Na2HPO4, 10 mM Hepes, 4.2 mM NaHCO3, 5.5 mM D-glucose, pH 7.4) was added to the cells; the mixture was suspended by inversion; and the mixture was centrifuged again (1,000 rpm, 5 minutes, 4° C.). Subsequently, HBHS was added so that the mixture has a cell density of 5.6×10^6 cells/ml and suspended. Then, DNase I and cytochalasin B were each added so as to have a final concentration of 5 μg/ml, and the cell suspension was dispensed in an amount of 90 μl (5×10^5 cells) on ice. […] After the cell stimulation for 10 minutes, 100 μl of an ice-cooled stop solution (25 mM Tris, 123 mM NaCl, 2.7 mM KCl, pH 7.4) were added, and immediately, the mixture was centrifuged (5,000 rpm, 1 minute, 4° C.). 200 μl of the obtained supernatant were transferred to a new tube.
The amount of β-hexosaminidase released in the supernatant of the reaction solution was measured by an enzyme reaction using p-nitrophenyl-N-acetyl-μ-D-glucosaminide as a substrate (Non-patent Document 12). That is, the supernatant of the reaction solution was dispensed in an amount of 90 μl to a 96-well plate. 60 μl of a substrate solution (10 mM p-nitrophenyl-N-acetyl-μ-D-glucosaminide, 40 mM citrate, 70 mM Na2HPO4, pH 4.5) were added to each well, followed by incubation at 37° C. for 1 hour. After the reaction, 100 μl of a stop solution (0.4 M glycine, pH 10.7) were added to each well and a color of the released p-nitrophenol was developed. The color development was measured with a plate reader at adsorption at 405 nm (reference: 492 nm). The all amount of β-hexosaminidase contained in the cells was quantified by treating the cells with Triton X-100 having a final concentration of 0.05%. In addition, the amount of β-hexosaminidase secreted by stimulation of 10 μM fMLP was also measured, and the ratio of the secretion amount by stimulation with each peptide to the above sectretion amount by stimulation with fMLP.

[1] = neutrophil-like differentiated HL-60 cells, Table 1, read-out: EC50 (μM), β-hexosaminidase-secreting activity
[2] = neutrophil-like differentiated HL-60 cells
[3] = differentiated HL-60 cells, read-out: EC50, β-hexosaminidase-secreting activity

Molecule | EC50 [1] | EC50 [3] | Activity (β-hexosaminidase-secreting activity class) [2] | β-hexosaminidase-secreting activity of C-terminally extended peptide compared to the peptide before the extension (differentiated HL-60 cells)
MQALRVSQALIRSFSSTARNR [compound 011] | 1.7 µM |  | ⊚ (a peptide in which the β-hexosaminidase-secreting activity was confirmed at a concentration of 300 nM or less) | 
MLWNLLALHQIGQRTISTASHRHFKNKVPEKQK [compound 032] | 0.15 µM |  | ⊚ (a peptide in which the β-hexosaminidase-secreting activity was confirmed at a concentration of 300 nM or less) | 
MLRNLLALRQIGQRTISTASRRH [compound 012] | 0.78 µM |  | ∘ (a peptide in which the β-hexosaminidase-secreting activity was confirmed at a concentration of 1 μM or less) | 
MFPLVKSALNRLQVRSIQQTMARQSHQKRT [compound 031] | 0.2 µM |  | ⊚ (a peptide in which the β-hexosaminidase-secreting activity was confirmed at a concentration of 300 nM or less) | 
MSVLTPLLLRGLTGSARRLPVPRAKIHSLPPEGK [No. 033] |  | 6 µM |  | higher activity compared to the peptides before the extension
MSVLTPLLLRGLTGSARRLPVPRAK [No. 007] |  | 8 µM |  | 
021 (MAIQFRSLFPLALPGMLALLGWWWFFSRK) [compound 021] |  |  | ● (a peptide in which the β-hexosaminidase-secreting activity was confirmed at a concentration of 10 μM or less) | 
005 (MASRLLRGAGTLAAQALR) [compound 005] |  |  | ▴ (a peptide in which the β-hexosaminidase-secreting activity was confirmed at a concentration of 100 μM or less) | 
045 (MAAALLARASGPARRALCPRAWRQ) [compound 045] | > 30 µM |  | ● (a peptide in which the β-hexosaminidase-secreting activity was confirmed at a concentration of 10 μM or less) | 
CC[C@H](C)[C@H](NC(=O)[C@H](CS)NC(=O)[C@H](CC(C)C)NC(=O)[C@H](CCC(N)=O)NC(=O)[C@@H]1CCCN1C(=O)[C@H](CO)NC(=O)[C@H](Cc1ccccc1)NC(=O)[C@H](Cc1c[nH]cn1)NC(=O)[C@H](C)NC(=O)[C@H](CCCNC(=N)N)NC(=O)[C@H](CC(C)C)NC(=O)[C@H](CS)NC(=O)[C@H](Cc1c[nH]cn1)NC(=O)[C@H](CCCNC(=N)N)NC(=O)CNC(=O)[C@@H](NC(=O)[C@H](Cc1c[nH]cn1)NC(=O)[C@H](CCCNC(=N)N)NC(=O)[C@H](CC(C)C)NC(=O)[C@H](CC(C)C)NC(=O)[C@H](CC(C)C)NC(=O)[C@H](C)NC(=O)[C@H](C)NC(=O)[C@@H](N)CCSC)C(C)C)C(=O)N[C@@H](CCCNC(=N)N)C(=O)N[C@@H](CC(N)=O)C(=O)N[C@@H](C)C(=O)N[C@H](C(=O)N1CCC[C@H]1C(=O)N[C@@H](CC(C)C)C(=O)O)C(C)C [compound 023] (H-MAALLLRHVGRHCLRAHFSPQLCIRNAVPL-OH; N-terminus and C-terminus assumed) | 0.3 µM |  | ⊚ (a peptide in which the β-hexosaminidase-secreting activity was confirmed at a concentration of 300 nM or less) | 
046 (MLPAALLRRPGLGRLVRHARAY) [compound 046] | > 5 µM |  | ∘ (a peptide in which the β-hexosaminidase-secreting activity was confirmed at a concentration of 1 μM or less) | 
002 (MASRLLRGAGTLAAQALRARGPSGAAAMR) [compound 002] |  |  | ▴ (a peptide in which the β-hexosaminidase-secreting activity was confirmed at a concentration of 100 μM or less) | 
003 (MASRLLRGAGTLAAQALRAR) [compound 003] |  |  | ▴ (a peptide in which the β-hexosaminidase-secreting activity was confirmed at a concentration of 100 μM or less) | 

Now from value to molecule, other results behind:

EC50 [1] | EC50 [3] | Molecule | Activity (β-hexosaminidase-secreting activity class) [2] | β-hexosaminidase-secreting activity of C-terminally extended peptide compared to the peptide before the extension (differentiated HL-60 cells)
8 µM |  | MSVLTPLLLRGLTGSARRLPVPRAK [compound 007] | ∘ (a peptide in which the β-hexosaminidase-secreting activity was confirmed at a concentration of 1 μM or less) | 
1.1 µM |  | MLRLPTVFRQMRPVSRVLAPHLTRAY [compound 024] | ⊚ (a peptide in which the β-hexosaminidase-secreting activity was confirmed at a concentration of 300 nM or less) | 
> 40 µM |  | 039 (MAASVVCRAATAGAQVLLRARRSPALLRTPALRS) [compound 039] | ● (a peptide in which the β-hexosaminidase-secreting activity was confirmed at a concentration of 10 μM or less) | 
6 µM |  | MSVLTPLLLRGLTGSARRLPVPRAKIHSLPPEGK [compound 033] | ∘ (a peptide in which the β-hexosaminidase-secreting activity was confirmed at a concentration of 1 μM or less) | 
> 50 µM |  | 029 (MAAPRAGRGAGWSLRAWRALGGIRWGRRPRL) [compound 029] | ● (a peptide in which the β-hexosaminidase-secreting activity was confirmed at a concentration of 10 μM or less) | 
> 30 µM |  | 027 (MQRAVSVVARLGFRLQAFPPALCRPLSC) [compound 027] | ● (a peptide in which the β-hexosaminidase-secreting activity was confirmed at a concentration of 10 μM or less) | 
2 µM |  | MALRAKAEVCMAVPWLSLQRAQAL [compound 049] | ● (a peptide in which the β-hexosaminidase-secreting activity was confirmed at a concentration of 10 μM or less) | 
> 40 µM |  | 017 (FTTFLTPAAYVLGNLKQFRRN) [compound 017] | ▴ (a peptide in which the β-hexosaminidase-secreting activity was confirmed at a concentration of 100 μM or less) | 
> 30 µM |  | 044 (MAAPAVSGLSRQVRCFSTSVVRPF) [compound 044] | ● (a peptide in which the β-hexosaminidase-secreting activity was confirmed at a concentration of 10 μM or less) | 
2 µM |  | MKLLTRAGSFSRFY [compound 040] | ⊚ (a peptide in which the β-hexosaminidase-secreting activity was confirmed at a concentration of 300 nM or less) | 
15 µM |  | MASRLLRGAGTLAAQALRA [compound 004] | ● (a peptide in which the β-hexosaminidase-secreting activity was confirmed at a concentration of 10 μM or less) | 
